According to patent US20160206604A1, “FORMULATIONS COMPRISING WETTING AGENTS AND COMPOUNDS FOR THE MODULATION OF HEMOGLOBIN (S)” (GLOBAL BLOOD THERAPEUTICS, INC., priority 2013, published 2016):
Several values for one entry are separate records, joined by “and”; a condition that tells them apart may be missing. Equal values may be shown once. Read-outs that look alike come from different tables or passages of the source.

Experiments:
[1] = Pharmacokinetic (PK) properties in rats, oral or intravenous dosing; format: in vivo, Rats (Sprague-Dawley); settings: for blood plasma ratio: male, Sprague-Dawley, rat, whole blood and plasma, po, 10 mg/kg, dosed orally
Protocol: This experiment was established and used in order to assess the pharmacokinetic (PK) properties of the compounds.
Sample collection and data analysis: Rats (Sprague-Dawley, male, 8-12 weeks old) were dosed with one of three compounds corresponding to compound 12, compound 22 or compound 23. The rats received oral (10 mg/kg) or intravenous (1 mg/kg) doses of the compound. Rats were fasted overnight before the experiments and provided with food after the 2 hour sampling time point.
(§1) Blood samples were collected at different time points. Blood was anti-coagulated by 3.2% TSC (trisodium citrate) and a portion was separated into plasma fraction by centrifugation and removal of blood cells. Plasma and lysed blood samples were analyzed for drug concentration using LC-MS/MS. PK parameters were calculated by non compartmental analysis of the concentration-time profiles using WinNonLin software (Pharsight, Mountain View, Calif.). Apparent elimination half-life (t1/2) values were calculated as ln(2)/k. Area under the concentration-time curve (AUC) values were estimated using the linear trapezoidal method. AUClast values were calculated from the dosing time to the last measurable concentration. AUCinf values were calculated as the sum of the corresponding AUClast and the ratio of the last detectable concentration divided by k. Plasma clearance (Cl) is calculated from Dose/AUCinf. Volume of distribution at steady state (Vss) is calculated from Mean Residence Timeinf×Clss. Maximum concentration (Cmax) and time to Cmax (Tmax) was recorded as observed. The blood/plasma partitioning ratio was calculated at each experimental time point.

HbS/A = biological target: T1, HbS/A (Homo sapiens, UniProt P68871+P69905, E7V); assay: R/T assay (relaxed-to-tense transition assay); format: biochemical; settings: for R-T (9 μM)/(delta R), class / R-T (9 μM)/(delta R): 9 μM compound; for R-T (9 μM)/(delta R) / R-T (10 μM)/(delta R): 3 μM HbS/A; for R-T (10 μM)/(delta R), class / R-T (10 μM)/(delta R): 10 μM compound
T1 construct: A mixture of HbS/A was purified from blood obtained from homozygous sickle cell patients; from tissue; host or cells: blood of homozygous sickle cell patients; hemoglobin purified from it
Protocol: This ability can be expressed as a “delta R” value (i.e., the change in the time-period of the R state after hemoglobin is treated with a compound, as compared to the period without treatment with the compound). Delta R is the % R to remaining after the compounds treatment compared with no treatment (e.g. if R % without treatment is 8% while with treatment with a target compound is 48% R at 30 μM, then % R is 40% for that compound.
A mixture of HbS/A was purified from blood obtained from homozygous sickle cell patients though the Hemoglobinopathy Center at Children's Hospital Oakland Research Institute (CHORI) with Institutional Review Board approval. HbS/A (at a final concentration of 3 μM) was incubated for 1 hr at 37° C. in presence or absence of compounds in […] potassium phosphate buffer, pH=7.4 and 30 μM 2, 3 diphosphoglycerate (DPG) in 96 well plates in a final volume of 160 μl. Compounds were added at different concentrations (3 μM to 100 μM final concentrations). Plates were covered with a Mylar film. After incubation was completed the Mylar cover was removed and the plates were placed in a Spectrostar Nano plate reader previously heated at 37° C. Five minutes later, N2 (flow rate=20 L/min) was flowed through the spectrophotometer. Spectroscopic measurements (300 nm to 700 nm) were taken every 5 min for 2 hours. Data analysis was performed by using linear regression from the data retrieved for all wavelengths.
Results: Table 3 below lists the delta R values where “+” indicates a delta R of between 0 and 30, “++” indicates a delta R of between 30 and 50, and “+++” indicates a delta R of 50 or greater.

HbS [2] = biological target: T2, HbS (Homo sapiens, UniProt P68871+P69905, E7V); assay: Reverse Hemox assay (oxygen equilibrium curves of whole blood); format: cell-based; set-up: Oxygen Equilibrium Curves (OEC) of whole blood before and after treatment; from tissue; host or cells: whole blood (red blood cells) of homozygous sickle cell patients; settings: 1 mM compound, sickle cell whole blood; for Reverse Hemox (1 mM)/(delta p50%): hematocrit 20%, 1 hour 37° C.
Protocol: Oxygen Equilibrium Curves (OEC) of whole blood before and after treatment with different concentrations of compounds 12, 22 and 23 were performed as follows using a HEMOX analyzer (TCS Scientific, New Hope, Pa.). Blood samples from homozygous sickle cell patients were obtained though the Hemoglobinopathy Center at Children's Hospital Oakland Research Institute (CHORI) with Institutional Review Board approval. The hematocrit was adjusted to 20% using autologous plasma and the blood samples were incubated for 1 hour at 37° C. in absence or presence of compounds. 100 μl of these samples were added to 5 mL of Hemox buffer (30 mM TES, 130 mM NaCl, 5 mM KCl, pH=7.4) at 37° C. and then transferred to the Hemox sample chamber. The samples were saturated with oxygen by flushing with compressed air for 10 minutes. The samples were then flushed with pure nitrogen and the respective absorbances of oxy- and deoxy-Hb were recorded as a function of the solution pO2. The oxygen equilibrium data were then fitted to the Hill Model to obtain values for p50. The deoxygenation curves for both whole blood alone (control) and whole blood in the presence of the compound were collected with the TCS software.
Results: Table 3 below lists the delta p50% values where “+” indicates a delta p50% of between 0 and 29, “++” indicates a delta p50% of between 30 and 50, and “+++” indicates a delta p50% of 50 or greater.

HbS [3] = biological target: T2, HbS; assay: Polymerization assay; format: biochemical; set-up: HbS is purified by the CRO VIRUSYS, from blood obtained from homozygous sickle cell patients; tissue VIRUSYS (CRO that did the purification); host or cells: blood of homozygous sickle cell patients; settings: 75 μM compound; for Polymerization (75 μM)/(% DT): 50 μM purified HbS, percent delay time
Protocol: Polymerization assays are carried out in vitro using purified HBS exchanged into 1.8 M potassium phosphate buffer at pH 7.4. Using a slightly modified protocol (Antonini and Brunori, 1971), HbS is purified by the CRO VIRUSYS, from blood obtained from homozygous sickle cell patients through the Hemoglobinopathy Center at Children's Hospital Oakland Research Institute (CHORI) with Institutional Review Board approval. Compounds are prepared in 100% DMSO and a desired amount is added to 50 μM of purified HbS at a final DMSO concentration of 0.3%. Final potassium phosphate concentration is adjusted to 1.8 M using a combination of 2.5 M potassium phosphate stock solution and water at pH 7.4. The reaction mixture is incubated for an hour at 37° C. and then transferred into a 24-well plate for deoxygenation in a glove box containing 99.5% nitrogen and 0.5% oxygen. The 24-well plate is not covered and incubated at 4° C. on a plate cooler inside the glove box for one and a half hours. Fifty μL of the reaction mixture is transferred into a 96-well plate and the absorbance at 700 nm is measured every minute for one hour at 37° C. in a plate reader located inside the glove box. A plot of the absorbance against time is fitted using a Boltzman sigmoidal fit and the delay time (from zero to time at half Vmax) is measured. To compare and rank compounds, delay times are expressed as percent delay (% DT), which is defined as the difference in delay times for HbS/compound and HbS alone multiplied by 100 and divided by the delay time for HbS alone.
Results: Compounds listed below have been tested in the polymerization assay. Activity ranges are defined by the number of dagger (†) symbols indicated. † denotes activity ≧40% but ≦80%; †† denotes activity >80% but ≦120%; ††† denotes activity >120% but ≦140%; †††† denotes activity >[…].

[4] = Pharmacokinetics of compound 12 following oral administration of compound 53 formulation, rats; settings: following oral administration 10 mg/kg
[5] = Pharmacokinetics of compound 12 suspension formulation (methylcellulose/sodium dodecyl sulfate), oral, rats; format: in vivo, Sprague-Dawley rats
Protocol: as §1
A suspension of Compound 12 was prepared by triturating 250 mg of compound 12 in a mortar with 2 mL of 0.5% methylcellulose in water and 200 μL of 0.5% sodium dodecyl sulfate. After approximately 5 minutes, the suspension was homogeneous. The volume of the mixture was adjusted to 12.5 mL with 0.5% methylcellulose to obtain a final concentration of 20 mg/mL. To prepare a 10 mg/mL suspension of compound 12, the 20 mg/mL suspension was diluted two-fold with 0.5% methylcellulose.
Pharmacokinetics of compound 12 following an oral administration of compound 12 suspension at 50 mg/kg or 100 mg/kg were studied in male Sprague-Dawley rats (n=3/group) using the method described in Example 1. Maximum blood concentration of compound 12 was achieved within 6 hours. The maximum concentrations at 50 mg/kg and 100 mg/kg compound 12 were 281 μg/mL (903 μM) and 327 μg/mL (1050 μM), respectively.

hemoglobin = hemoglobin (Homo sapiens, UniProt P68871+P69905); assay: In vitro system measuring binding to hemoglobin and human serum albumin; settings: both proteins present in their respective physiologic ratio
Protocol: However, when the red blood cell compartment is considered, compound 12 unexpectedly partitions into blood to a far greater extent than compound 22 or compound 23. […] When the red blood cell/plasma ratio was measured at the peak concentration, compound 12 partitioned at a ratio of 70 to 1 into the erythrocytes attesting to its preferential partition into the compartment which contains the drug target hemoglobin. Supportive data was reported in an in vitro system measuring binding of compound 12 to hemoglobin and human serum albumin.

[6] = overall exposure, read-out: Blood/plasma (Ratio of exposure AUCINF)

Structure (SMILES)	blood plasma ratio [1, 6]	R-T (9 μM)/(delta R), class (HbS/A)	R-T (9 μM)/(delta R) (HbS/A)	R-T (10 μM)/(delta R), class (HbS/A)	R-T (10 μM)/(delta R) (HbS/A)	Reverse Hemox (1 mM)/(delta p50%), class (HbS [2])	Reverse Hemox (1 mM)/(delta p50%) (HbS [2])	Polymerization (75 μM)/(% DT), class (HbS [3])	Polymerization (75 μM)/(% DT) (HbS [3])	in vivo conversion of prodrug [4]	blood plasma ratio ([1]; at Cmax, read-out: Blood/plasma (Ratio of peak concentration))	red blood cell/plasma ratio at the peak concentration ([1]; ratio to 1 into erythrocytes)	AUC(0-inf) ([5]; male, Sprague-Dawley, rat, blood, oral suspension 50 mg/kg)	half-life ([5]; male, Sprague-Dawley, rat, blood, oral suspension 50 mg/kg or 100 mg/kg, read-out: mean terminal half-life)	AUC(0-inf) ([5]; male, Sprague-Dawley, rat, blood, oral suspension 100 mg/kg)	time to maximum blood concentration ([5]; oral suspension 50 mg/kg or 100 mg/kg)	maximum concentration ([5]; oral suspension 50 mg/kg, blood)	maximum concentration ([5]; oral suspension 100 mg/kg, blood)	binding to hemoglobin versus human serum albumin (hemoglobin)
COc1cc(C=O)c(OCc2cccnc2-c2ccnn2CC(F)F)cn1 [Compound 22, 5-[[2-[2-(2,2-difluoroethyl)pyrazol-3-yl]pyridin-3-yl]methoxy]-2-methoxypyridine-4-carbaldehyde]	5	++ (“++” indicates a delta R of between 30 and 50)	31.02	++ (“++” indicates a delta R of between 30 and 50)	36.25	+++ (“+++” indicates a delta p50% of 50 or greater)	68.69%	†† (†† denotes activity >80% but ≦120%)	90.22%										
CC(C)n1nccc1-c1ncccc1COc1cccc(OP(=O)(O)O)c1C=O [Compound 53, 2-formyl-3-((2-(1-isopropyl-1H-pyrazol-5-yl)pyridin-3-yl)methoxy)phenyl dihydrogen phosphate]										converted to compound 12									
COc1cc(C=O)c(OCc2cccnc2-c2ccccc2C)cn1 [Compound 23, 2-methoxy-5-[[2-(2-methylphenyl)pyridin-3-yl]methoxy]pyridine-4-carbaldehyde]	1	++ (“++” indicates a delta R of between 30 and 50)	37.15	+++ (“+++” indicates a delta R of 50 or greater)	51.55	+++ (“+++” indicates a delta p50% of 50 or greater)	72.45%	†† (†† denotes activity >80% but ≦120%)	98.19%		3								
CC(C)n1nccc1-c1ncccc1COc1cccc(O)c1C=O [Compound 12, 2-hydroxy-6-[[2-(2-propan-2-ylpyrazol-3-yl)pyridin-3-yl]methoxy]benzaldehyde]		+++ (“+++” indicates a delta R of 50 or greater)	65.45	+++ (“+++” indicates a delta R of 50 or greater)	62.75	+++ (“+++” indicates a delta p50% of 50 or greater)	79.83%	†† (†† denotes activity >80% but ≦120%)	108.56%			70	7340 µg·h/mL	16 to 19 h	9460 µg·h/mL	≤ 6 h	281 μg/mL and 903 μM	327 μg/mL and 1050 μM	preferentially binding to hemoglobin
